Experimental data reported in PubChem BioAssay AID330 (DTP/NCI, 2004).
Several values for one entry are separate records, joined by “and”; a condition that tells them apart may be missing. Equal entries are not always repeated. Toxic doses and inconclusive results are not listed.

System: P388 leukemia ip, CD2F1 mice, survival T/C
Test: NCI In Vivo Anticancer Drug Screen. Data for tumor model P388 Leukemia (intraperitoneal) in CD2F1 (CDF1) mice
Conditions: endpoint: median survival time, higher = longer survival
Method in brief: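 Mice carrying the transplanted tumor received test compound or vehicle. Survival was recorded in each group, and the value is the treated-group measurement divided by that of the vehicle-treated control group.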

Cc1cccc(CC(C)(O)Cc2cccc(C)n2)n1
T/C (dose: 50.0 mg/kg/injection, schedule: Q01DX009 (ip), vehicle: other): 100 % of control | T/C (dose: 100.0 mg/kg/injection, schedule: Q01DX009 (ip), vehicle: other): 100 % of control | T/C (dose: 200.0 mg/kg/injection, schedule: Q01DX009 (ip), vehicle: other): 122 % of control

COc1cc(OC)c(/C=N/Nc2cc(C)nc3cc4c(cc23)OCO4)c(OC)c1
T/C (dose: 1.56 mg/kg/injection, schedule: Q01DX005 (ip), vehicle: Klucel (hydroxypropylcellulose) (HPC)): 106 % of control | T/C (dose: 3.12 mg/kg/injection, schedule: Q01DX005 (ip), vehicle: Klucel (hydroxypropylcellulose) (HPC)): 97 % of control | T/C (dose: 6.25 mg/kg/injection, schedule: Q01DX005 (ip), vehicle: Klucel (hydroxypropylcellulose) (HPC)): 102 % of control and 91 % of control | T/C (dose: 12.5 mg/kg/injection, schedule: Q01DX005 (ip), vehicle: Klucel (hydroxypropylcellulose) (HPC)): 100 % of control and 87 % of control | T/C (dose: 25.0 mg/kg/injection, schedule: Q01DX005 (ip), vehicle: Klucel (hydroxypropylcellulose) (HPC)): 103 % of control

CSC(=S)NNC(C)c1nccc2ccccc12 (stereo unspecified)
T/C (dose: 50.0 mg/kg/injection, schedule: Q01DX005 (ip), vehicle: saline with Tween-80): 109 % of control | T/C (dose: 100.0 mg/kg/injection, schedule: Q01DX005 (ip), vehicle: saline with Tween-80): 114 % of control | T/C (dose: 200.0 mg/kg/injection, schedule: Q01DX005 (ip), vehicle: saline with Tween-80): 108 % of control

O=c1nc2n(CC(O)C(O)C(O)C(O)CO)c3ccc(Cl)cc3nc-2c(=O)[nH]1 (stereo unspecified)
T/C (dose: 50.0 mg/kg/injection, schedule: Q01DX005 (ip), vehicle: saline): 104 % of control | T/C (dose: 100.0 mg/kg/injection, schedule: Q01DX005 (ip), vehicle: saline): 104 % of control | T/C (dose: 200.0 mg/kg/injection, schedule: Q01DX005 (ip), vehicle: saline): 104 % of control

CCNC(=O)C1CCN(Cc2c[nH]c3ccccc23)CC1
T/C (dose: 50.0 mg/kg/injection, schedule: Q04DX003 (ip), vehicle: saline with Tween-80): 113 % of control | T/C (dose: 100.0 mg/kg/injection, schedule: Q04DX003 (ip), vehicle: saline with Tween-80): 93 % of control | T/C (dose: 200.0 mg/kg/injection, schedule: Q04DX003 (ip), vehicle: saline with Tween-80): 102 % of control

CCN(CC)C1CC(O[C@H]2C[C@](O)(C(C)=O)Cc3c(O)c4c(c(O)c32)C(=O)c2c(OC)cccc2C4=O)OC(C)C1O (stereo partly specified)
T/C (dose: 0.25 mg/kg/injection, schedule: Q01DX009 (ip), vehicle: water): 104 % of control | T/C (dose: 0.5 mg/kg/injection, schedule: Q01DX009 (ip), vehicle: water): 114 % of control | T/C (dose: 4.0 mg/kg/injection, schedule: Q01DX009 (ip), vehicle: water): 174 % of control and 183 % of control | T/C (dose: 6.0 mg/kg/injection, schedule: Q04DX003 (ip), vehicle: water): 117 % of control | T/C (dose: 8.0 mg/kg/injection, schedule: Q01DX009 (ip), vehicle: water): 100 % of control | T/C (dose: 20.0 mg/kg/injection, schedule: Q04DX003 (ip), vehicle: water): 112 % of control | T/C (dose: 33.3 mg/kg/injection, schedule: Q04DX003 (ip), vehicle: water): 96 % of control | T/C (dose: 48.0 mg/kg/injection, schedule: Q04DX003 (ip), vehicle: water): 124 % of control | T/C (dose: 96.0 mg/kg/injection, schedule: Q04DX003 (ip), vehicle: water): 93 % of control
